Experimental data from paper PMC12472322, “Structure–Activity Relationship Study of 3-Alkynyl-6-aryl-isothiazolo[4,3-b]pyridines as Dual Inhibitors of the Lipid Kinases PIKfyve and PIP4K2C” (Pharmaceuticals, 2025).

Experiments:
[1] = molecular target: T1, PIKfyve (Homo sapiens, UniProt Q9Y2I7); assay: biochemical PIKfyve mobility shift assay (Nanosyn)
T1 construct: purchased Nanosyn, Santa Clara, CA, USA (contract assay service)

[2] = tested on: VEEV (TC-83); assay: microbe, parasite or virus in culture; type: cell-based; conditions: Venezuelan equine encephalitis virus, U-87 MG, 18 h, read-out: VEEV (TC-83) EC50
[3] = tested on: SARS-CoV-2; assay: microbe, parasite or virus in culture; type: cell-based, severe acute respiratory syndrome coronavirus 2; conditions: Severe acute respiratory syndrome coronavirus 2, VeroE6/TMPRSS2, 24 h; read-out: SARS-CoV2 EC50
[4] = tested on: U-87 MG cells; conditions: half-maximal cytotoxic concentration
[5] = cell viability (AlamarBlue) in SARS-CoV-2-infected Vero E6/TMPRSS2 cells; type: cell-based; conditions: African green monkey, Vero E6/TMPRSS2 cells infected with SARS-CoV-2, half-maximal cytotoxic concentration, read-out: SARS-CoV2 CC50

T1 sequence (Q9Y2I7 whole entry): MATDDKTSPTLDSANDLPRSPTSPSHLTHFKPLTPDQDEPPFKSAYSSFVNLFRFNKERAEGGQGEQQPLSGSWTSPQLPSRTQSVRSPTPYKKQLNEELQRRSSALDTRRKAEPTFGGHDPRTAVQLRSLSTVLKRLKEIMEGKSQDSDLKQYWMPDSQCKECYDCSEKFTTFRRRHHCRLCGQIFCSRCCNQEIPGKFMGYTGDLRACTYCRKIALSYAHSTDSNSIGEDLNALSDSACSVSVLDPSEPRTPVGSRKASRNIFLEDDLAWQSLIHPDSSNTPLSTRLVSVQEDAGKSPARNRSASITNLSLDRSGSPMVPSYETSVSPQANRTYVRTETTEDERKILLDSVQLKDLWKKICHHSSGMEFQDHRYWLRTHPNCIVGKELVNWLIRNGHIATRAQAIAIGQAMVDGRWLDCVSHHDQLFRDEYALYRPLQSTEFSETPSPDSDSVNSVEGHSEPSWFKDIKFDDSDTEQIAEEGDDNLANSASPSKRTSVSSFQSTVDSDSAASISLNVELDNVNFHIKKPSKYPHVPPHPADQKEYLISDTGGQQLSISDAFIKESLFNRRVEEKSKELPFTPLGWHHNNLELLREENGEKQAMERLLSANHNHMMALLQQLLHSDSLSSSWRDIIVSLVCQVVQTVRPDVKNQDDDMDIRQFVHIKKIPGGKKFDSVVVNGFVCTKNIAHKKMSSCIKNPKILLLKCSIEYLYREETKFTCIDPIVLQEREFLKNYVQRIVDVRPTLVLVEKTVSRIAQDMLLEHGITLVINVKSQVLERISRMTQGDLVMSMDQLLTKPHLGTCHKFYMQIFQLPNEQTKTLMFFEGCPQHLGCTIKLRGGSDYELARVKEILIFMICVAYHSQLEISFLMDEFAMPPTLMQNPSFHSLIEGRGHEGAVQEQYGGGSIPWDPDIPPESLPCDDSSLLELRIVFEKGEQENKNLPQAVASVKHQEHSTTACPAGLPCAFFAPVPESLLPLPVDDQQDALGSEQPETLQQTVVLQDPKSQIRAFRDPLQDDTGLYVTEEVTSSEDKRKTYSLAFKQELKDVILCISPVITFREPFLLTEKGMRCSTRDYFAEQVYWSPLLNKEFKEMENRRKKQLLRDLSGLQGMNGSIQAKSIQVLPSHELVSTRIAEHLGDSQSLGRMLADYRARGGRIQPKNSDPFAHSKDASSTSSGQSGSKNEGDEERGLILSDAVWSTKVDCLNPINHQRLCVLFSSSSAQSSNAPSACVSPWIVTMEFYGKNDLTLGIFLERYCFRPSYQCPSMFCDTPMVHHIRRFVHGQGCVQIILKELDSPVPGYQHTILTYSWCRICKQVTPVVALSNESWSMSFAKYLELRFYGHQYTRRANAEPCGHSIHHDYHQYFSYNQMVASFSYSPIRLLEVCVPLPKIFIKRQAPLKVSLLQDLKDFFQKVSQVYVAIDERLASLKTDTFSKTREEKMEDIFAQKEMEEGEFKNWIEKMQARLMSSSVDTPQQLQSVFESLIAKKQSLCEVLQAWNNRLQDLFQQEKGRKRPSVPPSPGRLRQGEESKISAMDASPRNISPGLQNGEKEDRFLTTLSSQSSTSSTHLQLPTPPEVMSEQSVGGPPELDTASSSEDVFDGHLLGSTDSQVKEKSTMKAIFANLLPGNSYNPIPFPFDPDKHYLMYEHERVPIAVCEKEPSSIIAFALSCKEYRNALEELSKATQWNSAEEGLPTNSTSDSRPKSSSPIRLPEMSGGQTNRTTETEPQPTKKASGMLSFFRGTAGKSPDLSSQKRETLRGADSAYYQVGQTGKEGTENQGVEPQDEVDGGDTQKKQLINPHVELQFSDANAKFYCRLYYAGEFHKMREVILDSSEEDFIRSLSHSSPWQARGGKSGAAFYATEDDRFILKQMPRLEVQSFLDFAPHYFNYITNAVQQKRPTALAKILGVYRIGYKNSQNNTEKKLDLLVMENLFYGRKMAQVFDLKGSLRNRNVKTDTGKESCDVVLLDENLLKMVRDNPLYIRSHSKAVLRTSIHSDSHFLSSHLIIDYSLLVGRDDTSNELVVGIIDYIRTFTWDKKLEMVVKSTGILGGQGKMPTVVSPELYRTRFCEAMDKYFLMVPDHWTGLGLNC

Row | Structure (SMILES) | IC50 ([1]; Tables 1-4 and text) [nM] | also measured
1 | C(#Cc1snc2cccnc12)c1cccnc1 [Compound 2a, 3-(Pyridin-3-ylethynyl)isothiazolo[4,3-b]pyridine] | 1150 | 
2 | Cc1ccccc1-c1cnc2c(C#Cc3cccnc3)snc2c1 [Compound 3c, 3-(Pyridin-3-ylethynyl)-6-(2-tolyl)isothiazolo[4,3-b]pyridine] | 8.2 | IC50 ([1]; values given in text in nM): 8 nM
3 | CN(C)c1ccc(-c2cnc3c(C#Cc4cccnc4)snc3c2)cc1 [Compound 3d, N,N-Dimethyl-4-(3-(pyridin-3-ylethynyl)isothiazolo[4,3-b]pyridin-6-yl)aniline] | 2.2 | 
4 | CC(C)Oc1ccc(-c2cnc3c(C#Cc4cccnc4)snc3c2)cc1 [Compound 3e, 6-(4-Isopropoxyphenyl)-3-(pyridin-3-ylethynyl)isothiazolo[4,3-b]pyridine] | 20 | 
5 | Fc1ccccc1-c1cnc2c(C#Cc3cccnc3)snc2c1 [Compound 3h, 6-(2-Fluorophenyl)-3-(pyridin-3-ylethynyl)isothiazolo[4,3-b]pyridine] | 8.8 | EC50 [2]: 6930 ± 130 nM; EC50 [3]: 1340 ± 500 nM; VEEV (TC-83) CC50 [4]: >20000 nM; CC50 [5]: > 20000 nM
6 | COCCOc1ccc(-c2cnc3c(C#Cc4cccnc4)snc3c2)cc1 [Compound 3j, 6-(4-(2-Methoxyethoxy)phenyl)-3-(pyridin-3-ylethynyl)isothiazolo[4,3-b]pyridine] | 2.1 | 
7 | CCNC(=O)c1ccc(-c2cnc3c(C#Cc4cccnc4)snc3c2)cc1 [Compound 3n, N-Ethyl-4-(3-(pyridin-3-ylethynyl)isothiazolo[4,3-b]pyridin-6-yl)benzamide] | 3.5 | 
8 | CN(C)C(=O)c1ccc(-c2cnc3c(C#Cc4cccnc4)snc3c2)cc1 [Compound 3o, N,N-Dimethyl-4-(3-(pyridin-3-ylethynyl)isothiazolo[4,3-b]pyridin-6-yl)benzamide] | 25 | 
9 | O=C(c1ccc(-c2cnc3c(C#Cc4cccnc4)snc3c2)cc1)N1CCCC1 [Compound 3p, (4-(3-(Pyridin-3-ylethynyl)isothiazolo[4,3-b]pyridin-6-yl)phenyl)(pyrrolidin-1-yl)methanone] | 20 | 
10 | CN(C)C(=O)c1cccc(-c2cnc3c(C#Cc4cccnc4)snc3c2)c1 [Compound 3q, N,N-Dimethyl-3-(3-(pyridin-3-ylethynyl)isothiazolo[4,3-b]pyridin-6-yl)benzamide] | 18 | 
11 | O=C(c1cccc(-c2cnc3c(C#Cc4cccnc4)snc3c2)c1)N1CCCC1 [Compound 3r, (3-(3-(Pyridin-3-ylethynyl)isothiazolo[4,3-b]pyridin-6-yl)phenyl)(pyrrolidin-1-yl)methanone] | 6.1 | 
12 | C(#Cc1snc2cc(-c3ccc(OCCN4CCOCC4)cc3)cnc12)c1cccnc1 [Compound 5a, 4-(2-(4-(3-(Pyridin-3-ylethynyl)isothiazolo[4,3-b]pyridin-6-yl)phenoxy)ethyl)morpholine] | 7.1 | EC50 [2]: 310 ± 10 nM; EC50 [3]: 5630 ± 970 nM; VEEV (TC-83) CC50 [4]: >10000 nM; CC50 [5]: > 20000 nM
13 | CCCC#Cc1snc2cc(-c3ccc(OC)c(OC)c3)cnc12 [Compound 7a, 6-(3,4-Dimethoxyphenyl)-3-(pent-1-yn-1-yl)isothiazolo[4,3-b]pyridine] | 850 | fold less potent on PIKfyve relative to RMC-113 ([1]; ratio of IC50 values): 100 fold
14 | COc1ccc(-c2cnc3c(C#Cc4ccccc4)snc3c2)cc1OC [Compound 7b, 6-(3,4-Dimethoxyphenyl)-3-(phenylethynyl)isothiazolo[4,3-b]pyridine] | 59 | 
15 | COc1ccc(-c2cnc3c(C#Cc4ccc(F)cc4)snc3c2)cc1OC [Compound 7c, 6-(3,4-Dimethoxyphenyl)-3-((4-fluorophenyl)ethynyl)isothiazolo[4,3-b]pyridine] | 250 | 
16 | COc1ccc(-c2cnc3c(C#Cc4cccc(Cl)c4)snc3c2)cc1OC [Compound 7d, 6-(3,4-Dimethoxyphenyl)-3-((3-chlorophenyl)ethynyl)isothiazolo[4,3-b]pyridine] | 39 | 
17 | COc1cccc(C#Cc2snc3cc(-c4ccc(OC)c(OC)c4)cnc23)c1 [Compound 7f, 6-(3,4-Dimethoxyphenyl)-3-((3-methoxyphenyl)ethynyl)isothiazolo[4,3-b]pyridine] | 21 | EC50 [2]: 4790 ± 240 nM; VEEV (TC-83) CC50 [4]: >10000 nM; CC50 [5]: < 10000 nM
18 | COc1ccc(-c2cnc3c(C#Cc4ccc(C)nc4)snc3c2)cc1OC [Compound 7g, 6-(3,4-Dimethoxyphenyl)-3-((6-methylpyridin-3-yl)ethynyl)isothiazolo[4,3-b]pyridine] | 360 | 
19 | COc1ccc(C#Cc2snc3cc(-c4ccc(OC)c(OC)c4)cnc23)cn1 [Compound 7h, 6-(3,4-Dimethoxyphenyl)-3-((6-methoxypyridin-3-yl)ethynyl)isothiazolo[4,3-b]pyridine] | 590 | 
20 | COc1ccc(-c2cnc3c(C#Cc4ccc(F)nc4)snc3c2)cc1OC [Compound 7j, 6-(3,4-Dimethoxyphenyl)-3-((6-fluoropyridin-3-yl)ethynyl)isothiazolo[4,3-b]pyridine] | 120 | 

Row | Structure (SMILES) | IC50 ([1]; Tables 1-4 and text) [nM] | also measured
21 | COc1ccc(-c2cnc3c(C#Cc4ccc(C(F)(F)F)nc4)snc3c2)cc1OC [Compound 7n, 6-(3,4-Dimethoxyphenyl)-3-((6-(trifluoromethyl)pyridin-3-yl)ethynyl)isothiazolo[4,3-b]pyridine] | 680 | 
22 | CCOc1ncccc1C#Cc1snc2cc(-c3ccc(OC)c(OC)c3)cnc12 [Compound 7s, 6-(3,4-Dimethoxyphenyl)-3-((2-ethoxypyridin-3-yl)ethynyl)isothiazolo[4,3-b]pyridine] | 110 | 
23 | COc1ccc(-c2cnc3c(C#Cc4cc(F)cnc4OC)snc3c2)cc1OC [Compound 7t, 6-(3,4-Dimethoxyphenyl)-3-((5-fluoro-2-methoxypyridin-3-yl)ethynyl)isothiazolo[4,3-b]pyridine] | > 10000 | 
24 | COc1ccc(C#Cc2snc3cc(-c4ccc(OC)c(OC)c4)cnc23)c(OC)n1 [Compound 7u, 6-(3,4-Dimethoxyphenyl)-3-((2,6-dimethoxypyridin-3-yl)ethynyl)isothiazolo[4,3-b]pyridine] | 5670 | 
25 | COc1ccc(-c2cnc3c(C#Cc4cc(C)cnc4F)snc3c2)cc1OC [Compound 7v, 6-(3,4-Dimethoxyphenyl)-3-((2-fluoro-5-methylpyridin-3-yl)ethynyl)isothiazolo[4,3-b]pyridine] | 42 | 
26 | COc1ccc(-c2cnc3c(C#Cc4ccncc4)snc3c2)cc1OC [Compound 7x, 6-(3,4-Dimethoxyphenyl)-3-(pyridin-4-ylethynyl)isothiazolo[4,3-b]pyridine] | 75 | 
27 | COc1ccc(-c2cnc3c(C#Cc4ccccn4)snc3c2)cc1OC [Compound 7y, 6-(3,4-Dimethoxyphenyl)-3-(pyridin-2-ylethynyl)isothiazolo[4,3-b]pyridine] | 30 | 
28 | COc1ccc(-c2cnc3c(C#CCNC(=O)c4ccccc4)snc3c2)cc1OC [Compound 11a, N-(3-(6-(3,4-Dimethoxyphenyl)isothiazolo[4,3-b]pyridin-3-yl)prop-2-yn-1-yl)benzamide] | 2040 | 
29 | COc1ccc(-c2cnc3c(C#CCNS(=O)(=O)c4ccccc4)snc3c2)cc1OC [Compound 11b, N-(3-(6-(3,4-Dimethoxyphenyl)isothiazolo[4,3-b]pyridin-3-yl)prop-2-yn-1-yl)benzenesulfonamide] | 1840 | 
30 | COc1ccc(-c2cnc3c(C#CCNC(=O)Nc4ccccc4)snc3c2)cc1OC [Compound 11c, 1-(3-(6-(3,4-Dimethoxyphenyl)isothiazolo[4,3-b]pyridin-3-yl)prop-2-yn-1-yl)-3-phenylurea] | > 10000 | 
31 | COc1ccc(-c2cnc3c(C#CCNc4ccccc4)snc3c2)cc1OC [Compound 13, N-(3-(6-(3,4-Dimethoxyphenyl)isothiazolo[4,3-b]pyridin-3-yl)prop-2-yn-1-yl)aniline] | 184 | 
32 | COc1ccc(-c2cnc3c(NCc4cccnc4)snc3c2)cc1OC [Compound 15, 6-(3,4-Dimethoxyphenyl)-N-(pyridin-3-ylmethyl)isothiazolo[4,3-b]pyridin-3-amine] | > 10000 | PIKfyve inhibition in words [1]: practically inactive
33 | COc1ccc(-c2cnc3c(-c4cccnc4)snc3c2)cc1OC [Compound 17, 6-(3,4-Dimethoxyphenyl)-3-(pyridin-3-yl)isothiazolo[4,3-b]pyridine] | 602 | 
34 | COc1ccc(-c2cnc3c(NC(=O)c4cccnc4)snc3c2)cc1OC [Compound 20, N-(6-(3,4-Dimethoxyphenyl)isothiazolo[4,3-b]pyridin-3-yl)nicotinamide] | 4290 | PIKfyve inhibition in words [1]: practically inactive
35 | COc1ccc(-c2cnc3c(CCc4cccnc4)snc3c2)cc1OC [Compound 22, 6-(3,4-Dimethoxyphenyl)-3-(2-(pyridin-3-yl)ethyl)isothiazolo[4,3-b]pyridine] | 33 | 
36 | CO/C(=C\c1snc2cc(-c3ccc(OC)c(OC)c3)cnc12)c1cccnc1 [Compound 23a, (Z)-6-(3,4-Dimethoxyphenyl)-3-(2-methoxy-2-(pyridin-3-yl)vinyl)isothiazolo[4,3-b]pyridine] | 525 | 
37 | COc1ccc(-c2cnc3c(/C=C(\OCCN(C)C)c4cccnc4)snc3c2)cc1OC [Compound 23b] | 309 | 
38 | COc1ccc(-c2cnc3c(/C=C(/c4cccnc4)N4CCOCC4)snc3c2)cc1OC [Compound 23c, (Z)-4-(2-(6-(3,4-Dimethoxyphenyl)isothiazolo[4,3-b]pyridin-3-yl)-1-(pyridin-3-yl)vinyl)morpholine] | 613 | 
39 | COc1ccc(-c2cnc3c(/C=C(\SCCO)c4cccnc4)snc3c2)cc1OC [Compound 23d, (Z)-2-((2-(6-(3,4-Dimethoxyphenyl)isothiazolo[4,3-b]pyridin-3-yl)-1-(pyridin-3-yl)vinyl)thio)ethan-1-ol] | 1540 | 
